Laboratory results published in US20240158370A1, “CK1 alpha AND DUAL CK1 alpha / GSPT1 DEGRADING COMPOUNDS” (Innovo Therapeutics, Inc., priority 2022, published 2024).

Assays:
CK1α = target: T1, CK1α (Homo sapiens, UniProt P48729+Q96SW2); assay: HiBiT degradation assay, CK1α, Procedure A; format: cell-based; conditions: six hours
T1 construct: CSNK1A1-HiBit KI HEK293(LgBit) Cells; host or cells: HEK293(LgBit) knock-in cells
Method in brief: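 10-pt dose response, 10–0.005 μM, 0.1% DMSO; cells 1×10^6/ml in DMEM/10% FBS, 6 h, 37° C; HiBiT lytic detection, luminescence; DC50 + Ymin by 4-parameter fit.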

GSPT1 = GSPT1 (Homo sapiens, UniProt P15170+Q96SW2); assay: HiBiT degradation assay, GSPT1, Procedure B (Molt 4_hGSPT1_HiBIT cells); format: cell-based; set-up: Molt 4_hGSPT1_HiBIT N-terminus tagged cells were generated using CRISPR technology; endogenous in cells; host or cells: Molt 4 cells, CRISPR-edited; conditions: six hours
GSPT1, sequence (P15170 whole entry): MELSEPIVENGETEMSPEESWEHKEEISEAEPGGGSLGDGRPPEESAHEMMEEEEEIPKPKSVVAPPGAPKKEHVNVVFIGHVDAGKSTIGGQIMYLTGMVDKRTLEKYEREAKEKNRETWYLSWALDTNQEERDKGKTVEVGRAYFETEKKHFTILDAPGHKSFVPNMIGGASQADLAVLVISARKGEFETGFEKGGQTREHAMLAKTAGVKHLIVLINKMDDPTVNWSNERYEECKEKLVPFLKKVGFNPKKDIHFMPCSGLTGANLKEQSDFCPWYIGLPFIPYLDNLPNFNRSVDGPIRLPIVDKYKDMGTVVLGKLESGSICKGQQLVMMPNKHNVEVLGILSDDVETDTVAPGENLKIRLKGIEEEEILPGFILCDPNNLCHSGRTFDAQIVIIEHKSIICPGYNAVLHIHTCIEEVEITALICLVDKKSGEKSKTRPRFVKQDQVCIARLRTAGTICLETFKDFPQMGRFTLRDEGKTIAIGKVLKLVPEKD
GSPT1, sequence (Q96SW2 whole entry): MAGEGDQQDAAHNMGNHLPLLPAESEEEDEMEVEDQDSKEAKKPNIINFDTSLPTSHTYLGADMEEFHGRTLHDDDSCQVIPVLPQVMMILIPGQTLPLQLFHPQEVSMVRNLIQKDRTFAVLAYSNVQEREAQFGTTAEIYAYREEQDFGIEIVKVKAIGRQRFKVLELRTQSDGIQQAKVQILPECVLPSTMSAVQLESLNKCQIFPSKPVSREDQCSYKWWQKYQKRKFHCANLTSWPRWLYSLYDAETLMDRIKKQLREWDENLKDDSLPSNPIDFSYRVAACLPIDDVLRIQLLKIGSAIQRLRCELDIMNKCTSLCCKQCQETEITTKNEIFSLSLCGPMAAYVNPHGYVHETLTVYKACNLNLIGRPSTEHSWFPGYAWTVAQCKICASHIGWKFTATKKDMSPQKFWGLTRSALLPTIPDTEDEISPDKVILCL
GSPT1, sequence (Q16531 whole entry partner): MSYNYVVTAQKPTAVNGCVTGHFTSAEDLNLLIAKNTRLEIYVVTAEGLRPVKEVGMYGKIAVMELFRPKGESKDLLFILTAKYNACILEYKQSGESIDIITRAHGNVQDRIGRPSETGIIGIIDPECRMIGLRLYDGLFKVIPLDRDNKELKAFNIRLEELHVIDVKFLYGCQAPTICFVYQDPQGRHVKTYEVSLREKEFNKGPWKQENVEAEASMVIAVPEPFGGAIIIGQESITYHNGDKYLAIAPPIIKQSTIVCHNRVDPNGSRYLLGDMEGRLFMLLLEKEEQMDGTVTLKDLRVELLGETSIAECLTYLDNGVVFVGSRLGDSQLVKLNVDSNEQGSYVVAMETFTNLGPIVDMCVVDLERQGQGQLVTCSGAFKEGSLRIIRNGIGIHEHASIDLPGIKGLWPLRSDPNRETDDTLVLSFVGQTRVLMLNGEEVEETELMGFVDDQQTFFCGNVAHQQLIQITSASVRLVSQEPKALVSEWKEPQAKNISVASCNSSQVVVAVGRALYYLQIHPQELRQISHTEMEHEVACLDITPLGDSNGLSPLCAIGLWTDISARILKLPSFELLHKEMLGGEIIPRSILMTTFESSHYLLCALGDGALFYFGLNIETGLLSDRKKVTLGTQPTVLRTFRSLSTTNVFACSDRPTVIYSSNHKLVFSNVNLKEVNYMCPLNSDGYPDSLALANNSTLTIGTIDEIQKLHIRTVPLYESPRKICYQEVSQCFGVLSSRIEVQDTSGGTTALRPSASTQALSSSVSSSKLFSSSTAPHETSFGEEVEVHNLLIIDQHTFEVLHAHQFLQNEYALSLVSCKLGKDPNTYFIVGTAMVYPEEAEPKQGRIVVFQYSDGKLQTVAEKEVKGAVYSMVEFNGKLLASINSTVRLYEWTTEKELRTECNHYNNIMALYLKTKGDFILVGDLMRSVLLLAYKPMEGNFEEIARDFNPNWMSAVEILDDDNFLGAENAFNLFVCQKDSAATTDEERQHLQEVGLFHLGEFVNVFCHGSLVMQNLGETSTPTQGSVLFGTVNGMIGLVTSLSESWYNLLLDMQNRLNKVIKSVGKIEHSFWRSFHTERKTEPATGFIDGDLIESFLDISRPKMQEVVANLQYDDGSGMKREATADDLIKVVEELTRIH
Description: Molt 4_hGSPT1_HiBIT N-terminus tagged cells were generated using CRISPR technology. Cells were maintained in RPMI media (Thermo Fisher Scientific, Catalog #11875-093) containing 10% Fetal Bovine Serum (Thermo Fisher Scientific, Catalog #16140071) 1% Penicillin-Streptomycin (Thermo Fisher Scientific, Catalog #25200056). Cells were maintained at 37° C. in a 5% CO2 environment.
Compounds were spotted onto Cornin 384-Well, Cell Culture-Treated, Flat-Bottom, Low Flange Microplate (Fisher Scientific, Catalog #07-201-013) using a Tecan D300e digital dispenser. Ten-point dose response curves spanning from 10 μM to 0.005 μM with a 0.1% DMSO tolerance were used.
Cells were centrifuged for 5 minutes at 1200 RPMs. Cell culture media was aspirated off and cells were resuspended with RPMI+10% FBS. Cell density was determined using a Denovix CellDrop BF cell counter. Cell density was adjusted to 1×10^6 cells/ml. 40 μl of cells was added to compound treated tissue culture plates and incubated for six hours at 37° C. After six hours, cell culture plates were removed from tissue culture incubator and cooled to room temperature. 40 μl of Nano-GloHiBiT Lytic Detection Reagent (Promega, Catalog #N3040) was added to each well. Plates were placed on an orbital shaker (600 rpm) for 20 minutes. Luminescence was measured using an Envsion plate reader (Perkin Elmer). IC50 curves and Ymin were generated using a 4-parameter curve fit with GraphPad Prism software (Prism Corporation).
Results from the HiBiT assay (DC50 (nM) and Ymin (% remaining)) are shown below. All CK1α data was generated according to Procedure A. GSPT1 data for Examples 1-600, 603-620 and 703-705 was generated according to Procedure A. GSPT1 data for Examples 601, 621-702 and 706-735 was generated according to Procedure B.

T1 sequence (P48729 whole entry): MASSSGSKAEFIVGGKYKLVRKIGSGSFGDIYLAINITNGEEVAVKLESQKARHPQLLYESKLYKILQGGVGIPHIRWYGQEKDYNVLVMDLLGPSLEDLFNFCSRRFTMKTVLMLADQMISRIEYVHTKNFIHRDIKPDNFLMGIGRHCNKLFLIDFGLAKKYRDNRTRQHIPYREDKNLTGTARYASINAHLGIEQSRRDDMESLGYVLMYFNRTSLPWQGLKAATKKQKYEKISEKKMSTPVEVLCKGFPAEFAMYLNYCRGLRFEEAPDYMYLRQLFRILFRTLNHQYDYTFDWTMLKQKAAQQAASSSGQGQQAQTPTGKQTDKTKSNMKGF
T1 sequence (Q96SW2 whole entry): as the sequence (Q96SW2 whole entry) above
T1 sequence (Q16531 whole entry partner): as the sequence (Q16531 whole entry partner) above

| CK1α Ymin (CK1α) | DC50 (CK1α) [nM] | DC50 (GSPT1) [nM] | GSPT1 Ymin (GSPT1) | Structure (SMILES) |
| --- | --- | --- | --- | --- |
| E (E = >25-75% remaining) | < 25 | < 25 | F (F = >75-100% remaining) | COc1ccc(C#N)cc1-c1nc(-c2ccc3c(c2)CN(C2CCC(=O)NC2=O)C3=O)cn1C (stereo not drawn) [Example 684] |
| D (D = >10- 25% remaining) | < 25 | < 25 | F (F = >75-100% remaining) | CCCCc1ccc(-c2nc(-c3ccc4c(c3)CN(C3CCC(=O)NC3=O)C4=O)cn2C)s1 (stereo not drawn) [Example 687] |
| C (C = 0-10% remaining) | < 25 | < 25 | F (F = >75-100% remaining) | COc1ccc(Cl)c(-c2nc(-c3ccc4c(c3)CN(C3CCC(=O)NC3=O)C4=O)cn2C)c1 (stereo not drawn) [Example 688] |
| E (E = >25-75% remaining) | < 25 | < 25 | F (F = >75-100% remaining) | Cn1ncc(-c2ccc3c(c2)CN(C2CCC(=O)NC2=O)C3=O)c1C1=COCCC1 (stereo not drawn) [Example 695] |
| D (D = >10- 25% remaining) | < 25 | ≥ 25 | E (E = >25-75% remaining) | Cn1ncc(-c2ccc3c(c2)CN(C2CCC(=O)NC2=O)C3=O)c1C1=CCCCCC1 (stereo not drawn) [Example 697] |
| F (F = >75-100% remaining) | ≥ 25 | ≥ 25 | F (F = >75-100% remaining) | Cn1ncc(-c2ccc3c(c2)CN(C2CCC(=O)NC2=O)C3=O)c1C1CCC(F)(F)CC1 (stereo not drawn) [Example 699] |
| E (E = >25-75% remaining) | ≥ 25 | ≥ 25 | F (F = >75-100% remaining) | Cn1ncc(-c2ccc3c(c2)CN(C2CCC(=O)NC2=O)C3=O)c1C1=Cc2ccccc2CC1 (stereo not drawn) [Example 701] |
| E (E = >25-75% remaining) | ≥ 25 | ≥ 25 | F (F = >75-100% remaining) | Cn1ncc(-c2ccc3c(c2)CN(C2CCC(=O)NC2=O)C3=O)c1C1=CCN(CC(F)(F)F)CC1 (stereo not drawn) [Example 702] |
| D (D = >10- 25% remaining) | < 25 | ≥ 25 | F (F = >75-100% remaining) | C[C@H]1CCCCN1c1nc(-c2ccc3c(c2)CN(C2CCC(=O)NC2=O)C3=O)nn1C (stereo partly drawn) [Example 708, 3-(5-(1-methyl-5-((S)-2-methylpiperidin-1-yl)-1H-1,2,4-triazol-3-yl)-1-oxoisoindolin-2-yl)piperidine-2,6-dione] |
| D (D = >10- 25% remaining) | < 25 | ≥ 25 | F (F = >75-100% remaining) | C[C@@H]1CCCCN1c1nc(-c2ccc3c(c2)CN(C2CCC(=O)NC2=O)C3=O)nn1C (stereo partly drawn) [Example 709, 3-(5-(1-methyl-5-((R)-2-methylpiperidin-1-yl)-1H-1,2,4-triazol-3-yl)-1-oxoisoindolin-2-yl)piperidine-2,6-dione] |
| E (E = >25-75% remaining) | < 25 | ≥ 25 | F (F = >75-100% remaining) | Cn1cc(-c2ccc3c(c2)CN(C2CCC(=O)NC2=O)C3=O)nc1C12CC3CC(CC(C3)C1)C2 (stereo not drawn) [Example 711, 3-[5-[2-(1-adamantyl)-1-methyl-imidazol-4-yl]-1-oxo-isoindolin-2-yl]piperidine-2,6-dione] |
| D (D = >10- 25% remaining) | < 25 | < 25 | F (F = >75-100% remaining) | Cc1nc(-c2ccc3c(c2)CN(C2CCC(=O)NC2=O)C3=O)nn1-c1ccccc1 (stereo not drawn) [Example 712, 3-(5-(5-methyl-1-phenyl-1H-1,2,4-triazol-3-yl)-1-oxoisoindolin-2-yl) piperidine-2,6-dione] |
| D (D = >10- 25% remaining) | < 25 | < 25 | F (F = >75-100% remaining) | Cn1nc(-c2ccc3c(c2)CN(C2CCC(=O)NC2=O)C3=O)nc1N1CCCC1 (stereo not drawn) [Example 713, 3-(5-(1-methyl-5-(pyrrolidin-1-yl)-1H-1,2,4-triazol-3-yl)-1-oxoisoindolin-2-yl)piperidine-2,6-dione] |
| E (E = >25-75% remaining) | < 25 | < 25 | F (F = >75-100% remaining) | Cn1cc(-c2ccc3c(c2)CN(C2CCC(=O)NC2=O)C3=O)nc1C1(C)CCCCC1 (stereo not drawn) [Example 714, 3-(5-(1-methyl-2-(1-methylcyclohexyl)-1H-imidazol-4-yl)-1-oxoisoindolin-2-yl)piperidine-2,6-dione] |

Further lines, the molecule ahead of its results:

| Structure (SMILES) | CK1α Ymin (CK1α) | DC50 (CK1α) [nM] | DC50 (GSPT1) [nM] | GSPT1 Ymin (GSPT1) |
| --- | --- | --- | --- | --- |
| Cn1cc2cc(-c3nc(-c4ccc5c(c4)CN(C4CCC(=O)NC4=O)C5=O)cn3C)ccc2n1 (stereo not drawn) [Example 682] | C (C = 0-10% remaining) | < 25 | < 25 | F (F = >75-100% remaining) |
| Cn1cc(-c2ccc3c(c2)CN(C2CCC(=O)NC2=O)C3=O)nc1-c1ccnc2ccccc12 (stereo not drawn) [Example 686] | C (C = 0-10% remaining) | < 25 | < 25 | F (F = >75-100% remaining) |
| Cn1cc(-c2ccc3c(c2)CN(C2CCC(=O)NC2=O)C3=O)nc1-c1cccc2c1CCC2 (stereo not drawn) [Example 689] | C (C = 0-10% remaining) | < 25 | ≥ 25 | F (F = >75-100% remaining) |
| Cn1ncc(-c2ccc3c(c2)CN(C2CCC(=O)NC2=O)C3=O)c1C1=CCNCC1 (stereo not drawn) [Example 690] | E (E = >25-75% remaining) | ≥ 25 | ≥ 25 | F (F = >75-100% remaining) |
| Cn1ncc(-c2ccc3c(c2)CN(C2CCC(=O)NC2=O)C3=O)c1C1=CCCC1 (stereo not drawn) [Example 691] | E (E = >25-75% remaining) | < 25 | ≥ 25 | F (F = >75-100% remaining) |
| Cn1ncc(-c2ccc3c(c2)CN(C2CCC(=O)NC2=O)C3=O)c1C1=CCOCC1 (stereo not drawn) [Example 693] | E (E = >25-75% remaining) | < 25 | ≥ 25 | F (F = >75-100% remaining) |
| Cn1ncc(-c2ccc3c(c2)CN(C2CCC(=O)NC2=O)C3=O)c1C1CCOCC1 (stereo not drawn) [Example 694] | E (E = >25-75% remaining) | ≥ 25 | ≥ 25 | F (F = >75-100% remaining) |
| Cn1ncc(-c2ccc3c(c2)CN(C2CCC(=O)NC2=O)C3=O)c1C1=CCC(c2ccccc2)CC1 (stereo not drawn) [Example 696] | E (E = >25-75% remaining) | < 25 | ≥ 25 | F (F = >75-100% remaining) |
| Cn1ncc(-c2ccc3c(c2)CN(C2CCC(=O)NC2=O)C3=O)c1C1=CCC(F)(F)CC1 (stereo not drawn) [Example 698] | F (F = >75-100% remaining) | < 25 | ≥ 25 | F (F = >75-100% remaining) |
| Cn1ncc(-c2ccc3c(c2)CN(C2CCC(=O)NC2=O)C3=O)c1C1=Cc2ccccc2C1 (stereo not drawn) [Example 700] | E (E = >25-75% remaining) | < 25 | < 25 | F (F = >75-100% remaining) |
| Cn1nc(-c2ccc3c(c2)CN(C2CCC(=O)NC2=O)C3=O)nc1N1[C@@H]2CCC[C@H]1CC2 (stereo partly drawn) [Example 706, 3-(5-(5-((1R,5S)-8-azabicyclo[3.2.1]octan-8-yl)-1-methyl-1H-1,2,4-triazol-3-yl)-1-oxoisoindolin-2-yl)piperidine-2,6-dione] | D (D = >10- 25% remaining) | < 25 | ≥ 25 | F (F = >75-100% remaining) |
| Cn1nc(-c2ccc3c(c2)CN(C2CCC(=O)NC2=O)C3=O)nc1N1CCC(C(F)(F)F)CC1 (stereo not drawn) [Example 707, 3-(5-(1-methyl-5-(4-(trifluoromethyl)piperidin-1-yl)-1H-1,2,4-triazol-3-yl)-1-oxoisoindolin-2-yl)piperidine-2,6-dione] | D (D = >10- 25% remaining) | < 25 | ≥ 25 | F (F = >75-100% remaining) |
| Cn1cc(-c2ccc3c(c2)CN(C2CCC(=O)NC2=O)C3=O)nc1[C@H]1CC[C@H](C)CC1 (stereo partly drawn) [Example 715, 3-(5-(1-Methyl-2-((1r,4r)-4-methylcyclohexyl)-1H-imidazol-4-yl)-1-oxoisoindolin-2-yl)piperidine-2,6-dione] | D (D = >10- 25% remaining) | < 25 | < 25 | E (E = >25-75% remaining) |
